From US10214567B2, “Tagged hepadnavirus E antigen and its use in screening antiviral substances” (Drexel University, priority 2014, dated 2019)
Entries after “also recorded” stand apart in the source; their conditions may differ.

System: HA-HBeAg production from HepBHAe13 cells
Test: HA-HBeAg CLIA in HepBHAe13 cells treated with cccDNA formation inhibitors (96-well-plate)
Type: cell-based, Hepatitis B virus (HBV)
Conditions: tetracycline removed, compounds at indicated concentrations, 0.5% DMSO, day 12 post treatment (FIG. 11)
Excerpt: According to another aspect of the present invention, the in vitro assay method can be used to evaluate compounds/candidate molecules that suppress cccDNA formation. Briefly, cells can be seeded into culture wells and tetracycline can be omitted at the day when cell monolayer becomes confluent. Simultaneously, test compound can be added and tagged hepadnavirus e antigen (like HA-HBeAg) in the medium can be measured by ELISA at the end of treatment (approximately 6 days). […] As an expanding aspect of this in vitro assay method, it is worth to note that the reduction of tagged hepadnavirus e antigen (like HA-HBeAg) in this assay may also indicate that the compound has the potential to inhibit hepadnavirus (like HBV) DNA replication. Such possibility can be investigated through direct measurement of viral core DNA by Southern blot and/or qPCR. […]
FIG. 11. […] At day 12 post treatment, culture fluid was subjected to HA-HBeAg CLIA and readout was plotted as percentage (mean±SD) to control.
For chemiluminescence enzyme immunoassay (CLIA) detection of HA-tagged HBeAg, high sensitivity streptavidin coated plate (Black, cat#: 15525, Thermo Scientific) was washed by PBST (PBS plus 0.05% Tween 20) for 3 times, and then incubated with 50 μl of anti-HA-biotin (cat#: A00203, Genscript; 5 μg/ml in PBS) at RT for 30 min, followed by wash with 200 μl PBST for 3 times. […] The plate was read on a luminometer.

SMILES | HA-HBeAg level in culture fluid (CLIA, percentage to control)
O=C(CN(c1cc(C(F)(F)F)ccc1Cl)S(=O)(=O)c1ccccc1)NCc1ccncc1 [CCC-0975] | dose-dependent inhibition of HA-HBeAg production; also recorded: dose dependently reduced the HA-HBeAg level
Cc1nc2cc(NC(=O)c3ccc(S(=O)(=O)N(C)Cc4ccccc4)cc3)ccc2s1 [CCC-0346] | dose-dependent inhibition of HA-HBeAg production; also recorded: dose dependently reduced the HA-HBeAg level
